Consider three compounds from publication PMC6327263, “Evaluation of Novel 3-Hydroxyflavone Analogues as HDAC Inhibitors against Colorectal Cancer” (Advances in Pharmacological Sciences, 2018).

Read-outs that look alike come from different tables or passages of the source.

The target of experiment [1] is T1, recombinant human HDAC6 enzyme (Homo sapiens, UniProt Q9UBN7).
T1 construct: purchased Enzo Life Sciences, Inc. USA
T1 sequence (Q9UBN7 1-1215): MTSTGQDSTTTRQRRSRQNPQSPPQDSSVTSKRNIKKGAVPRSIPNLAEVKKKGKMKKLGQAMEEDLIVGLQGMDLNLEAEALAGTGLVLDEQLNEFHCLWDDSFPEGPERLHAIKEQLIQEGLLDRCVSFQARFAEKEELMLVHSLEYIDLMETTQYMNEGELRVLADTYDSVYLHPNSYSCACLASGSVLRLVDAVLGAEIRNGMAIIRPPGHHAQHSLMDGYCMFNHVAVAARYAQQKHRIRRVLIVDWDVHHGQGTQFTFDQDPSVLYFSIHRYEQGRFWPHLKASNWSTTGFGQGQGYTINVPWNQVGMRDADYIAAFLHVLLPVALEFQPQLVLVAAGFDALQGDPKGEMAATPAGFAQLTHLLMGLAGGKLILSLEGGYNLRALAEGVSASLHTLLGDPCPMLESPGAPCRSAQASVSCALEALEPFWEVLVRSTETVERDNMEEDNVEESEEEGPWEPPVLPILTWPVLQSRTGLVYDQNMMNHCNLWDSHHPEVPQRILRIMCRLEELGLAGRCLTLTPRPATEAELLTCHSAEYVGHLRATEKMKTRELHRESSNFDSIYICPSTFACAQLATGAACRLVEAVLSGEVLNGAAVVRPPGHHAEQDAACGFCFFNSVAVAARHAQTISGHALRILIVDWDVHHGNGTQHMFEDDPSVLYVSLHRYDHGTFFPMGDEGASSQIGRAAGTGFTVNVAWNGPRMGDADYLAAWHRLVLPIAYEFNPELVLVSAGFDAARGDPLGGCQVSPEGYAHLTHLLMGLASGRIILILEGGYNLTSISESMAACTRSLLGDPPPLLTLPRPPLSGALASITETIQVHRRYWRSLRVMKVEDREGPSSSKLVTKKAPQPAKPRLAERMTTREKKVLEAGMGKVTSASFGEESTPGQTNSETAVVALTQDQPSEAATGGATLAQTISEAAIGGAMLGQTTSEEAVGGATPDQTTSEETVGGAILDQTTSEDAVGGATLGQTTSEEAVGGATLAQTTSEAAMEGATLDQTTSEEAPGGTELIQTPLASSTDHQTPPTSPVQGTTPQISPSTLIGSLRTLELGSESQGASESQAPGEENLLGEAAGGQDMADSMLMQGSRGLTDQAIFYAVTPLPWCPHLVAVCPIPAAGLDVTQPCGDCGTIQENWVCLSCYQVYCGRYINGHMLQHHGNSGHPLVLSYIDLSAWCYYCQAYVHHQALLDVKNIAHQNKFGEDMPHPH
As to the kind of experiment: HDAC6 enzyme inhibition assay. It counts as biochemical. The note with it: mean ± SEM of three experiments. Here is the method:
(§1) The HDAC1 and 6 assays were carried out with few modifications from the previously described method. In brief, 10 µl of different concentration of test compounds was added to 40 µl of reaction mixture containing HDAC assay buffer, HDAC substrate, and recombinant human HDAC1 and 6 enzymes. The reactions were incubated for 30 min at 37°C. Then, 50 µl of trypsin stop solution was added in each well, and the plate was incubated at room temperature for an additional 20 min. Fluorescence intensity was measured at an excitation of 360 nm and an emission of 460 nm using a fluorescence microplate reader (FLx800, BioTek Instruments Inc. Winooski, VT, USA).

For experiment [2], the system named is p21^Waf1/Cip1. As to the kind of experiment: Western blotting, p21Waf1/Cip1 expression. It counts as cell-based, human. The note with it: HCT116 cells, 24 h, compared to normal control. Here is the method: (§2) After various treatments for 24 h, cells were lysed, and protein quantification of the lysates was estimated using the BCA™ kit (Thermo Fisher Scientific Inc., Waltham, MA, USA). Proteins samples (30 µg) were resolved on a 10% SDS-PAGE and transferred onto a PVDF membrane and blocked with 5% nonfat milk in TBST (tris-buffered saline with Tween-20) buffer for 1 h followed by washing in TBST buffer. The membrane was then probed with primary antibodies (GAPDH, HDAC8, p21^Waf1/Cip1, and acetyl-histone H3[Ac-Lys^9]) and incubated overnight at 4°C. The membrane was washed with TBST buffer and incubated with horseradish peroxidase-conjugated secondary antibody for 1 h at room temperature. Signal was captured using SuperSignal™ West Pico Plus chemiluminescent substrate (Thermo Fischer Scientific Inc., Waltham, MA, USA) on gel documentation system (G : BOX Chemi XRQ, Syngene).
In general terms: In western blotting, separated proteins are transferred to a membrane and probed.

In experiment [3] the test system is VERO cells. As to the kind of experiment: MTT cytotoxicity assay, Vero. Conditions: Chlorocebus sabaeus, 48 h, mean ± SEM of three experiments. In kind it is cell-based, African green monkey. As for the experimental part:
Human colorectal carcinoma cell line (HCT116) and African green monkey kidney epithelial cells (VERO) were obtained from National Centre for Cell Science, Pune, MH, India. For their maintenance, the cells were grown in Dulbecco's Modified Eagle's Medium (DMEM) which was supplemented with 10% fetal bovine serum (FBS) and 1 × penicillin/streptomycin at 37°C in CO2 incubator (NU-5501E/G, NuAire Inc., Plymouth, MN, USA) in a humidified atmosphere of 5% CO2 and 95% air.
Cytotoxicity for the synthesized analogues was determined using MTT assay. In brief, HCT116 and VERO cells were harvested from the tissue culture flask and seeded in sterile 96 well plates at a density of 5000 cells per well. After overnight adherence, different concentrations of test compounds were added and incubated for 48 h. Next, 50 µl of the MTT reagent (HiMedia Laboratories, Mumbai, India) (2 mg/ml in the sterile phosphate buffer saline (PBS)) was added into each well and incubated for 3 h. The formazan crystals formed were solubilized using 100% dimethyl sulfoxide (DMSO), and the optical density was measured at 540 nm using the microplate reader (ELx800, BioTek Instruments Inc., Winooski, VT, USA).

For experiment [4], the system named is HCT116 cells. As to the kind of experiment: Annexin V staining. It counts as cell-based, human. Conditions: SAHA 5 µM, quercetin 100 µM, QMJ-2 100 µM, QMJ-5 50 µM, normal control 21.30%. As for the experimental part:
Mechanism of cell death induced by synthesized analogues was determined using annexin V staining. In brief, as per annexin V flow cytometry kit protocol (#MCH100105), 1 × 10^6 cells were seeded in a cell culture dish and after overnight adherence, were incubated with test compounds. Cells were then detached by trypsinization, centrifuged, and washed with PBS. Cell suspension (100 µl) was mixed with Muse annexin V reagent (100 µl) and incubated for 20 min at room temperature. The stained cells were quantitatively analyzed for live, early, and late apoptosis using Muse cell analyzer (#0500-3115 Merck Millipore).

For experiment [5], the target named is T2, recombinant human HDAC1 enzyme (Homo sapiens, UniProt Q13547).
T2 construct: purchased Enzo Life Sciences, Inc. USA
T2 sequence (Q13547 whole entry): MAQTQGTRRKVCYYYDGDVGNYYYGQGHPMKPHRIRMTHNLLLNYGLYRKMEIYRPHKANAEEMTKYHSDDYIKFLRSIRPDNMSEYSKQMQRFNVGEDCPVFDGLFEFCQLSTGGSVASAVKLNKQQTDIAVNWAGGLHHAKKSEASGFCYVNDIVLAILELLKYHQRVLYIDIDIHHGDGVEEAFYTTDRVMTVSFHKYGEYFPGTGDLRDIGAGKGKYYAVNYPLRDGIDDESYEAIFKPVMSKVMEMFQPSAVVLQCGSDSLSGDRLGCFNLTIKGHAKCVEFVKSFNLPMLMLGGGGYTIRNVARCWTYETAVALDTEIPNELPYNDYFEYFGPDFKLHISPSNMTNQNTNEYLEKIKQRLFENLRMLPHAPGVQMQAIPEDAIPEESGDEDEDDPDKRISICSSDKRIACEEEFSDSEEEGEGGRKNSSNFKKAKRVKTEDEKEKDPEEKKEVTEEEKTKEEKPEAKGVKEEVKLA
As to the kind of experiment: HDAC1 enzyme inhibition assay. It counts as biochemical. As for the experimental part: as §1

Experiment [6] deals with HDAC8. Put plainly: Western blotting, HDAC8 expression. In kind it is cell-based, human. The note with it: HCT116 cells, 24 h, compared to normal control. As for the experimental part: as §2
Setting [7] is: mean ± SEM of three experiments, read-out: HDAC1 IC50.

Take `Cc1ccc(-c2oc3ccccc3c(=O)c2O)cc1` [QMJ-2, 3-Hydroxy-2-(4-methylphenyl)-4H-1-benzopyran-4-one]: the IC50 was found to be 165 ± 11.1 µM in experiment [1], 140 ± 6.8 µM in experiment [3] and 34.1 ± 3.83 µM in experiment [5] (setting [7]). Further, in experiment [2], the “expression of p21^Waf1/Cip1” value was “increased”. Further, the “percentage of cells undergoing late apoptosis (Late Apop./Dead, annexin V)” value (shortened to “percentage”) in experiment [4] is 35.20%.

As to `Cc1ccc(-c2oc3cc(C)ccc3c(=O)c2O)cc1` [QMJ-5, 3-Hydroxy-7-methyl-2-(4-methylphenyl)-4H-1-benzopyran-4-one], the values for the IC50 in experiment [1], in experiment [3] and in experiment [5] (setting [7]) were 163 ± 7.05 µM, 55.6 ± 3.8 µM and 47.7 ± 6.3 µM, respectively. Besides, in experiment [2], the “expression of p21^Waf1/Cip1” value is on record as “increased”. The “percentage” value in experiment [4] was determined as 38.65%. In experiment [6], the HDAC8 expression result is reported as “significant reduction”.

Consider `O=c1c(O)c(-c2ccc(O)c(O)c2)oc2cc(O)cc(O)c12` [Quercetin, quercetin, reference compound], for which the IC50 in experiment [1] came to 43.4 ± 2.17 µM; in experiment [3], 202 ± 7.5 µM; in experiment [5] (HDAC1 IC50, mean ± SEM of three experiments) it was 26.7 ± 3.77 µM. Besides, the “percentage” value in experiment [4] is recorded as 35.80%. Moreover, the HDAC8 expression result in experiment [6] is “significant reduction”.

The IC50 is the concentration that inhibits the measured activity by half.
